Laboratory results: patent US20250011318A1 (ARCUS BIOSCIENCES, INC., priority 2023, published 2025)

Key:
Cbl-b = target: T1, Cbl-b (Homo sapiens, UniProt Q13191); assay: Cbl-b probe displacement HTRF binding assay; settings: 0.4 nM biotinylated Cbl-b, 150 nM BODIPY probe
T1 construct: biotin (biotinylated)
Experimental: The affinity with which compounds of the present disclosure bind to Cbl-b was assessed using probe displacement homologous time resolved fluorescence (HTRF) assays. The assays used a BODIPY™ conjugated probe (Example 54 from WO 2020264398) and biotinylated Cbl-b. The assays were performed in assay buffer consisting of 20 mM Hepes, 150 mM NaCl, 0.01% Triton X-100, 0.5 mM TCEP, 0.01% BSA. On the day of the assay, a 20 point, 1:2 master serial dilution of each compound was prepared in DMSO to span a final concentration range of 10 μM to 0 nM. Two hundred nanoliters of diluted compound was added to each well of a 384-well plate. Fifteen microliters of biotinylated—Cbl-b resuspended in assay buffer were added to each well and the plate incubated for 60 minutes at room temperature prior to addition of 5 μL of BODIPY™ probe in assay buffer. Final assay conditions included 0.4 nM of Cbl-b and 150 nM of BODIPY™ probe. After a further 15 minutes of incubation at room temperature, 5 μl of Streptavidin-Terbium cryptate reagent at 5-fold final concentration was added to each well of the 384-well plate. Binding of a probe to Cbl-b results in an increase of HTRF signal. HTRF signal was measured by Envision plate reader, while competition of a compound of the present disclosure with probe results in a decrease of signal. Percentage maximum activity in each test well was calculated based on DMSO (maximum activity, 0% displacement) and no protein control wells (baseline activity, 100% displacement). Binding affinity was determined from a dose response curve fitted using a standard four parameter fit equation. See Table 3 for data for compounds (Cbl-b Binding (IC50)).

Jurkat cells = assay: IL-2 secretion assay in CD3/CD28-activated Jurkat cells (AlphaLISA); format: cell-based, human; settings: Homo sapiens, CD3/CD28 T Cell Activator, 24 h, IL-2 AlphaLISA
Experimental: Certain compounds were also evaluated in an IL-2 secretion assay. On the day of the assay, a 16 point, 1:2 master serial dilution of each compound was prepared in Opti-MEM to span a final concentration range of 10 μM to 300 pM. Assays were setup in CORNING® tissue culture-treated 384-well microplates containing 60 nL of each dilution. Jurkat cells grown in RPMI-1640 supplemented with 10% FBS, 1% Glutamax, and 1% Pen/Strep were collected, resuspended in Opti-MEM. 50,000 cells/well and added to the compound plates. After a short spin (1200 rpm for 1 min), the plates were incubated at 37° C. for 1 hour. The cells were activated by adding 15 μL of IMUNOCULT™ Human CD3/CD28 T Cell Activator (STEMCELL Technologies) diluted in Opti-MEM. After 24 h of incubation at 37° C., aliquots of culture supernatants were transferred to OptiPlate-384 (PerkinElmer) microplates. The level of IL-2 secretion in the supernatants was then determined using the IL-2 (human) AlphaLISA Detection Kit (PerkinElmer) according to the manufacturer's recommendations. The AlphaLISA signal was measured using an EnVision plate reader (PerkinElmer). EC50 values were determined by fitting the data to a standard 4-parameter logistic equation. See Table 3 for data for select compounds (IL-2 Secretion (EC50)).

T1 sequence (Q13191 whole entry, species assumed): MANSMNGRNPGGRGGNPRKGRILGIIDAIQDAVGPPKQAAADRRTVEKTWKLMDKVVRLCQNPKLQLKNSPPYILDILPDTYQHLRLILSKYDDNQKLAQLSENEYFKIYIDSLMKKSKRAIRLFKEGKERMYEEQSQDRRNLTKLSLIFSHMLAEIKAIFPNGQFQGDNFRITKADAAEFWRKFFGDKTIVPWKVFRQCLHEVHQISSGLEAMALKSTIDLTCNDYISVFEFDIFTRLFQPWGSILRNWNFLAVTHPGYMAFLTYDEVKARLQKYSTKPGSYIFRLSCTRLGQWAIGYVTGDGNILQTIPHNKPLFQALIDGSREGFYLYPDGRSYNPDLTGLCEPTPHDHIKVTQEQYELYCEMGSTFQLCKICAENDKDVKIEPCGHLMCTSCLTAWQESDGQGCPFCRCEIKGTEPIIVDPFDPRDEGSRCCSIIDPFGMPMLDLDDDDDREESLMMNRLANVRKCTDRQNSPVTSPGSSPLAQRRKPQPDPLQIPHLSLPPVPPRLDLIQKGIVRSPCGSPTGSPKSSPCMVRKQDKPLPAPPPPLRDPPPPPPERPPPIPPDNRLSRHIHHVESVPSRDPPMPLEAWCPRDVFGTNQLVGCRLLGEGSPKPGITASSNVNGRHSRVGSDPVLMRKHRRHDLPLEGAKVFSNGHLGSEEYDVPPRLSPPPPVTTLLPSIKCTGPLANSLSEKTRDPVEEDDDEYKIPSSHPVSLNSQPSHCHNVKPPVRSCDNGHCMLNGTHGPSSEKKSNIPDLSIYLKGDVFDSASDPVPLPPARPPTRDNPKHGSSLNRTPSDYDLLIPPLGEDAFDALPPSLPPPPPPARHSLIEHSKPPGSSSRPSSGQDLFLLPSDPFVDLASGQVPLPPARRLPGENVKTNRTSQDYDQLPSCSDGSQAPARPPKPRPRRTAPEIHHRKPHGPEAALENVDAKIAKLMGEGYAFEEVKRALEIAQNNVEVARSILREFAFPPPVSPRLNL

SMILES: CC(c1cc2c(C3CC3)cn(-c3cc(-c4ccc(C#N)cc4-c4nccn4C)cc(C4CC4)n3)c(=O)c2[nH]1)N1CCC[C@H](C)C1 (mixture of isomers) [Example 100, 4-[2-(2-{1-[(S)-3-methyl-1-piperidyl]ethyl}-4-cyclopropyl-7-oxo-1,6-dihydro-1,6-diaza-6-indenyl)-6-cyclopropyl-4-pyridyl]-3-(1-methyl-2-imidazolyl)benzonitrile]
- IC50 (Cbl-b): < 100 nM
- EC50 (Jurkat cells): < 100 nM

SMILES: CC(c1cc2c(S(C)(=O)=O)cn(-c3cc(-c4ccc(C#N)cc4-c4nccn4C)cc(C4CC4)n3)c(=O)c2[nH]1)N1CCC[C@H](C)C1 (mixture of isomers) [Example 101, 4-[2-(2-{1-[(S)-3-methyl-1-piperidyl]ethyl}-4-mesyl-7-oxo-1,6-dihydro-1,6-diaza-6-indenyl)-6-cyclopropyl-4-pyridyl]-3-(1-methyl-2-imidazolyl)benzonitrile]
- IC50 (Cbl-b): < 100 nM
- EC50 (Jurkat cells): < 100 nM

SMILES: CC(c1cc2c(S(C)(=O)=O)cn(-c3cc(-c4ccc(C#N)cc4-c4nccn4C)cc(C4CC4)n3)c(=O)c2[nH]1)N1CCO[C@H](C)C1 (mixture of isomers) [Example 102, 4-[2-(2-{1-[(R)-2-methyl-4-morpholinyl]ethyl}-4-mesyl-7-oxo-1,6-dihydro-1,6-diaza-6-indenyl)-6-cyclopropyl-4-pyridyl]-3-(1-methyl-2-imidazolyl)benzonitrile]
- IC50 (Cbl-b): < 100 nM
- EC50 (Jurkat cells): < 100 nM

SMILES: C[C@H]1CCCN(Cc2cc3c(C4CC4)cn(-c4cc(-c5ccc(C#N)cc5-c5nncn5C)cc(Cl)n4)c(=O)c3[nH]2)C1 [Example 1, 4-[2-(2-{[(S)-3-methyl-1-piperidyl]methyl}-4-cyclopropyl-7-oxo-1,6-dihydro-1,6-diaza-6-indenyl)-6-chloro-4-pyridyl]-3-(4-methyl-4H-1,2,4-triazol-3-yl)benzonitrile]
- IC50 (Cbl-b): < 100 nM
- EC50 (Jurkat cells): < 100 nM

SMILES: C[C@H]1CCCN(Cc2cc3c(C4CC4)cn(-c4cc(-c5ccc(C#N)cc5-c5nncn5C)cc(C5CC5)n4)c(=O)c3[nH]2)C1 [Example 2, 4-[2-(2-{[(S)-3-methyl-1-piperidyl]methyl}-4-cyclopropyl-7-oxo-1,6-dihydro-1,6-diaza-6-indenyl)-6-cyclopropyl-4-pyridyl]-3-(4-methyl-4H-1,2,4-triazol-3-yl)benzonitrile]
- IC50 (Cbl-b): < 100 nM
- EC50 (Jurkat cells): < 100 nM

SMILES: CNCCN(C)c1cc(-c2ccc(C#N)cc2-c2nncn2C)cc(-n2cc(C3CC3)c3cc(CN4CCC[C@H](C)C4)[nH]c3c2=O)n1 [Example 3, 4-(2-{N-methyl[2-(methylamino)ethyl]amino}-6-(2-{[(S)-3-methyl-1-piperidyl]methyl}-4-cyclopropyl-7-oxo-1,6-dihydro-1,6-diaza-6-indenyl)-4-pyridyl)-3-(4-methyl-4H-1,2,4-triazol-3-yl)benzonitrile]
- IC50 (Cbl-b): 100 to 1000 nM
- EC50 (Jurkat cells): 1000 to 5000 nM

SMILES: Cn1cnnc1-c1cc(C#N)ccc1-c1cc(C2CC2)nc(-n2cc(C3CC3)c3cc[nH]c3c2=O)c1 [Example 4]
- IC50 (Cbl-b): 1000 to 5000 nM
- EC50 (Jurkat cells): > 5000 nM

SMILES: COc1ccc(-c2cc(C3CC3)nc(-n3cc(C4CC4)c4cc(CN5CCC[C@H](C)C5)[nH]c4c3=O)c2)c(-c2nncn2C)c1 [Example 5, 2-{[(S)-3-Methyl-1-piperidyl]methyl}-4-cyclopropyl-6-{6-cyclopropyl-4-[4-methoxy-2-(4-methyl-4H-1,2,4-triazol-3-yl)phenyl]-2-pyridyl}-1,6-dihydro-1,6-diaza-7-indenone]
- IC50 (Cbl-b): < 100 nM
- EC50 (Jurkat cells): < 100 nM

SMILES: C[C@H]1CCCN(Cc2cc3c(C4CC4)cn(-c4cc(-c5ccc(F)cc5-c5nncn5C)cc(Cl)n4)c(=O)c3[nH]2)C1 [Example 6, 2-{1[(S)-3-Methyl-1-piperidyl]methyl}-6-{6-chloro-4-[4-fluoro-2-(4-methyl-4H-1,2,4-triazol-3-yl)phenyl]-2-pyridyl}-4-cyclopropyl-1,6-dihydro-1,6-diaza-7-indenone]
- IC50 (Cbl-b): < 100 nM
- EC50 (Jurkat cells): < 100 nM

SMILES: C[C@H]1CCCN(Cc2cc3c(C4CC4)cn(-c4cc(-c5ccc(F)cc5-c5nncn5C)cc(O)n4)c(=O)c3[nH]2)C1 [Example 7, 2-{[(S)-3-methyl-1-piperidyl]methyl}-4-cyclopropyl-6-{4-[4-fluoro-2-(4-methyl-4H-1,2,4-triazol-3-yl)phenyl]-6-hydroxy-2-pyridyl}-1,6-dihydro-1,6-diaza-7-indenone]
- IC50 (Cbl-b): 100 to 1000 nM
- EC50 (Jurkat cells): 1000 to 5000 nM

SMILES: COc1cc(-c2ccc(F)cc2-c2nncn2C)cc(-n2cc(C3CC3)c3cc(CN4CCC[C@H](C)C4)[nH]c3c2=O)n1 [Example 8, 2-{[(S)-3-Methyl-1-piperidyl]methyl}-4-cyclopropyl-6-{4-[4-fluoro-2-(4-methyl-4H-1,2,4-triazol-3-yl)phenyl]-6-methoxy-2-pyridyl}-1,6-dihydro-1,6-diaza-7-indenone]
- IC50 (Cbl-b): < 100 nM
- EC50 (Jurkat cells): < 100 nM

SMILES: C[C@H]1CCCN(Cc2cc3c(C4CC4)cn(-c4cc(-c5ccc(F)cc5-c5nncn5C)cc(C5CC5)n4)c(=O)c3[nH]2)C1 [Example 10, 2-{[(S)-3-Methyl-1-piperidyl]methyl}-4-cyclopropyl-6-{6-cyclopropyl-4-[4-fluoro-2-(4-methyl-4H-1,2,4-triazol-3-yl)phenyl]-2-pyridyl}-1,6-dihydro-1,6-diaza-7-indenone]
- IC50 (Cbl-b): < 100 nM

SMILES: C[C@H]1CCCN(Cc2cc3c(C4CC4)cn(-c4cc(-c5ccc(C#N)cc5-c5nccn5C)cc(C5CC5)n4)c(=O)c3[nH]2)C1 [Example 13, 4-[2-(2-{[(S)-3-methyl-1-piperidyl]methyl}-4-cyclopropyl-7-oxo-1,6-dihydro-1,6-diaza-6-indenyl)-6-cyclopropyl-4-pyridyl]-3-(1-methyl-2-imidazolyl)benzonitrile]
- IC50 (Cbl-b): < 100 nM

SMILES: CO[C@@H](C)CNCc1nc2c(C(F)(F)F)cn(-c3cc(-c4ccc(F)cc4-c4ncoc4C)cc(C4CC4)n3)c(=O)c2[nH]1 [Example 49, 2-{[(S)-2-methoxypropylamino]methyl}-5-{6-cyclopropyl-4-[4-fluoro-2-(5-methyl-1,3-oxazol-4-yl)phenyl]-2-pyridyl}-7-(trifluoromethyl)-3,5-dihydro-1,3,5-triaza-4-indenone]
- IC50 (Cbl-b): < 100 nM

SMILES: COCCNCc1cc2ncn(-c3cc(-c4ccc(C#N)cc4-c4ncoc4C)cc(C4CC4)n3)c(=O)c2[nH]1 [Example 72, 4-(6-cyclopropyl-2-{2-[(2-methoxyethylamino)methyl]-7-oxo-1,6-dihydro-1,4,6-triaza-6-indenyl}-4-pyridyl)-3-(5-methyl-1,3-oxazol-4-yl)benzonitrile]
- IC50 (Cbl-b): < 100 nM

SMILES: COCCNCc1cc2ncn(-c3cc(-c4ccc(F)cc4-c4ncoc4C)cc(C4CC4)n3)c(=O)c2[nH]1 [Example 78, 6-{6-cyclopropyl-4-[4-fluoro-2-(5-methyl-1,3-oxazol-4-yl)phenyl]-2-pyridyl}-2-[(2-methoxyethylamino)methyl]-1,6-dihydro-1,4,6-triaza-7-indenone]
- IC50 (Cbl-b): < 100 nM

SMILES: COC[C@H](C)NCc1cc2ncn(-c3cc(-c4ccc(F)cc4-c4ncoc4C)cc(C4CC4)n3)c(=O)c2[nH]1 [Example 79, 2-{[(S)-2-methoxy-1-methylethylamino]methyl}-6-{6-cyclopropyl-4-[4-fluoro-2-(5-methyl-1,3-oxazol-4-yl)phenyl]-2-pyridyl}-1,6-dihydro-1,4,6-triaza-7-indenone]
- IC50 (Cbl-b): < 100 nM

SMILES: CCOCCNCc1cc2ncn(-c3cc(-c4ccc(F)cc4-c4ncoc4C)cc(C4CC4)n3)c(=O)c2[nH]1 [Example 80, 6-{6-cyclopropyl-4-[4-fluoro-2-(5-methyl-1,3-oxazol-4-yl)phenyl]-2-pyridyl}-2-[(2-ethoxyethylamino)methyl]-1,6-dihydro-1,4,6-triaza-7-indenone]
- IC50 (Cbl-b): < 100 nM

SMILES: CO[C@@H](C)CN(C)Cc1cc2ncn(-c3cc(-c4ccc(F)cc4-c4nc(C#N)cn4C)cc(C4CC4)n3)c(=O)c2[nH]1 [Example 113, 2-[2-[2-cyclopropyl-6-[6-[[[(2S)-2-methoxypropyl]-methylamino]methyl]-4-oxo-5H-pyrrolo[3,2-d]pyrimidin-3-yl]pyridin-4-yl]-5-fluorophenyl]-1-methyl-imidazole-4-carbonitrile]
- IC50 (Cbl-b): < 100 nM
